Our source for the melting point values is a melting point compilation (Tetko et al.; mined from patent text by program, amines drawn as free bases though some values may be those of a salt).

For `CC(C)Cn1c(CNC(=O)OC(C)(C)C)c(-c2ccc(F)cc2)c2cc(/C=C/C(N)=O)ccc2c1=O`, the melting point was 161 to 163 °C.
Compound `COc1ccc(-c2nc(Sc3ccc(Cl)c(Cl)c3)[nH]c2-c2ccc(OC)cc2)cc1` yielded a melting point of 113 to 115 °C.
For `CCN(C(=O)OC)c1c(C(=O)c2cnoc2C2CC2)ccc(Cl)c1Cl` the value was 76 to 78 °C.
As for `CCc1nn(C2CCCC2)c2cc(C(=O)Nc3ccc(C(=O)NOCc4ccccc4)cc3)ccc12`, the figure is 194 to 198 °C; as for `CCCCn1c(=O)[nH]c(C(F)(F)F)c(Cl)c1=O`, 138 to 139 °C; as for `CCCCc1noc(-c2cccc(NC(=O)N(C)C)c2)n1`, 108 to 110 °C.
The compound `C=CCN(CC(N)=O)S(=O)(=O)Cc1cccc(C(F)(F)F)c1` yielded a melting point of 91 to 92 °C.
For `C#Cc1cn(C2CC(OC(=O)C(C)(C)C)C(COC(=O)C(C)(C)C)O2)c(=O)[nH]c1=O` (centres undefined) the value was 151 °C.
As for `Cc1cc(CN(Cc2ccco2)c2sc(-c3ccc(C(F)(F)F)cc3)nc2C)ccc1OC(C)(C)C(=O)O`, the figure is 80 °C.
For the compound `CCOC(=O)c1c(N=Cc2cccs2)sc(N=Cc2ccc([N+](=O)[O-])s2)c1C(=O)OCC`, the melting point was in the range of 220 to 222 °C.
For `Clc1nc(-c2nc3ccccc3[nH]2)[nH]c1Cl` the value was 300 °C.
On to `COc1cccc(C(F)(F)F)c1S(=O)(=O)NC(=O)Nc1nc(C)cc(C)n1`, for which the melting point was determined as 190 °C.
As to `O=C1OC(CO)CN1c1ccc2ccccc2c1` (centres undefined), the melting point is 174 °C.
Compound `Cc1cc(OCCCCCl)cc(-c2ccc(F)cc2)n1` registered a melting point of 59 to 61 °C.
`CC(C)C1(C)NC(c2nc3ccccc3cc2C=O)=NC1=O` (centres undefined) had a melting point of 226 to 227 °C.
`CC(C)c1ccccc1NN` had a melting point of 206 to 210 °C.
For `O=S1N=C(NCCCOc2cccc(CN3CCCCC3)c2)C(NCc2ccccn2)=N1` (centres undefined) the value was 140 to 143 °C; for `CC(CCCl)C(=O)Nc1nnc(C(C)(C)C)s1` (centres undefined), 124 to 126 °C; for `CCCC1=C(C(=O)OCC)C(c2cccc(C#N)c2OC)c2c[nH]nc2N1` (centres undefined), 220 to 222 °C.
As for `CC(C)C[C@H](NS(=O)(=O)c1ccccc1)C(=O)NC(C)(C)C(=O)c1c(-c2ccccc2)c1=O`, the figure is 53 to 59 °C.
As to `N#Cc1ccc(CCCN2C(=O)c3ccccc3C2=O)cc1`, the melting point is 138 to 140 °C.
Regarding `CN=C(NC)Nc1ccccc1-c1ccccc1`, the melting point is 101 to 102 °C.
For `CN1Cc2c(NC(=O)OCc3ccccc3)ncn2-c2ccccc2C1=O` the value was 246 to 247 °C.
In the case of `CC(c1ccc(Cl)cc1)N1Cc2sc3ncn(CCN4CCN(c5cccc6ccccc56)CC4)c(=O)c3c2C1` (centres undefined), the melting point was 149 °C.
`CSc1nn2c(O)cc(C)nc2c1S(=O)(=O)c1ccc(C)cc1`: the melting point is more than 230 °C.
For `Cc1cc(-c2nc3c(F)c(F)ccc3s2)ccc1N`, the melting point was 204 to 205 °C.
For `CC(O)C(C)(C)NC(=O)[C@@H]1CCCN1C(=O)[C@@H](O)[C@H](Cc1ccccc1)NC(=O)[C@H](CC(N)=O)NC(=O)OCc1ccccc1` (some centres undefined) the value was 102 to 104 °C; for `CCCc1cccc(C2(c3ccc(OC(F)(F)F)cc3)N=C(N)N3CCCN=C32)c1` (centres undefined), 75 to 79 °C.
For `Cc1ccc(S(=O)(=O)OCC2Cc3cc(Cl)cc(-c4ccsc4)c3O2)cc1` (centres undefined) the value was 115 to 117 °C; for `Cc1oc(-c2ccccc2)nc1COc1ccc(C(=O)c2ccccc2OC(C)C(=O)O)cc1` (centres undefined), 186 to 187 °C.
For `CCOC(=O)Cn1nnnc1C(=O)c1ccccc1` the value was 63 to 67 °C.
Take `Cn1cccc1C(=O)c1cc([N+](=O)[O-])ccc1Cl`: the melting point was 108 to 110 °C.
As for `COC(=O)CCCCCCCNC(=O)C(CO)NS(=O)(=O)c1ccc(Cl)cc1` (racemic), the figure is 88 to 92 °C.
The compound `CCCCCCCCCCCCc1nnn[nH]1` registered a melting point of 68 to 70 °C.
For `Cc1nc(C(F)(F)F)ccc1/C=C/C(=O)Nc1ccc2cc[nH]c2c1` the value was 223 °C; for `CC(C)=CCC/C(C)=C/Cn1c(CO)nc2ccccc21`, 120 to 123 °C.
As for `OC1(c2cncc(Br)c2)CCCC1`, the figure is 74 °C; as for `CC(C)(C)c1cc(Nc2cccc(Cl)c2)cc(C(C)(C)C)c1O`, 110 to 111 °C; as for `N#Cc1cnc2c(c1)N(Cc1cc(Cl)ccc1Cl)CCN2`, 221 to 222 °C.
As for `O=C(Nc1cc(CCCS(=O)(=O)c2ccc(Cl)cc2)ccc1OCc1nnn[nH]1)c1cccc(OCc2nc3ccccc3s2)c1`, the figure is 189 to 191 °C; as for `Cc1cnc(CNC(=O)c2sc(N3CCN(Cc4ccc(C(F)(F)F)cc4)C3=O)nc2C)cn1`, 172 to 173 °C.
`Nc1nc(N)nc(-c2ccc(C#Cc3ccccc3)cc2)n1` registered a melting point of 248 to 249 °C.
For `COc1ccc(C(=O)Nc2ccc(F)cc2)cc1NS(=O)(=O)c1ccc([N+](=O)[O-])cc1` the value was 208 to 211 °C.
For `CNS(=O)(=O)c1cc(C)ccc1C=C1c2ccccc2CCc2ccccc21` the value was 175 °C; for `CCc1nc2c(cnn2CC)c(NC2CCOCC2)c1CNC(=O)c1cccc(C(=O)NCc2ccc(OC)c(-c3cccc(CN4CC(C)NC(C)C4)c3)c2)c1` (centres undefined), 127 to 129 °C; for `COc1ccc(N2CCN(CCn3c(=NC(=O)C(F)(F)F)sc4cc(C(F)(F)F)ccc43)CC2)cc1`, 120 °C.
As for `CC(C)(C)[C@@H](NC(=O)c1cc(Cl)cc(Cl)c1)NC1C(=O)C(=O)C1Nc1cccnc1Cl` (some centres undefined), the figure is 233 to 234 °C.
In turn, `CCn1cc(-c2ccccc2)nc(S(=O)(=O)Cc2ccc(Cl)cc2)c1=O` yielded a melting point of 146 to 148 °C.
For `CCOc1ccc(/C=C/c2nc3c([nH]2)c(=O)n(CC)c(=O)n3CC)cc1` the value was 297 to 299 °C; for `CCCC1Cc2c(c(C)c(C)c3oc(C(=O)O)cc23)C1=O` (centres undefined), 287 °C; for `CC(=O)Oc1ccc(C(C)=NOCCOc2ccc(CC3SC(=O)NC3=O)cc2)cc1` (centres undefined), 133 to 135 °C.
For the compound `CC(C)n1nc(-c2sc(Nc3ccccn3)nc2-c2ccccc2)ccc1=O`, the melting point lay within 194 to 195 °C.
`CCCCCCCOc1c(OC)cc([N+](=O)[O-])c2nccc(C)c12` came in with a melting point of 52 to 55 °C.
As for `CN1CCC(C(=O)Nc2cccc3nc(NC4CCc5ccccc54)ccc23)CC1` (centres undefined), the figure is 197 °C; as for `COCCCNc1cc(C(F)(F)F)ccc1N`, 69 to 70 °C.
As for `CCCn1nnn(-c2cc(OCC#CI)c(Cl)cc2Cl)c1=O`, the melting point fell in the range of 134 to 138 °C.
For `CCc1cccc2oc(C(=O)Nc3ccc(-c4ccc(S(=O)(=O)NC(C(=O)OC)C(C)C)cc4)cc3)c(C)c12` (centres undefined) the value was 183 to 185 °C; for `COC(=O)CCC1OC(=O)C(O)=C1c1ccccc1` (centres undefined), 135 to 136 °C; for `CCOC(=O)C1C(=O)CC(C)(O)C(C(=O)OCC)C1c1cccc2oc3c(c12)CCCC3` (centres undefined), 155 to 157 °C.
On to `CN(O)C(=O)C(=Cc1ccc2ccccc2c1)c1ccc(Cl)cc1`, for which the melting point was in the range of 140 to 142 °C.
`Clc1ccc(C2=NNCC2)cc1` registered a melting point of 90 to 100 °C.
As for `COC(=O)c1ccc(CN2CCN(S(=O)(=O)c3ccccc3)CC2)cc1`, the figure is 145 to 146 °C; as for `CNS(=O)(=O)c1ccc(Nc2nc(-c3ccccc3)cc(N3CCC(O)CC3)n2)cc1`, 280 to 285 °C.
For `O=C(Nc1n[nH]c(=S)s1)N[C@@H](Cc1ccc(F)cc1)C(=O)N1CCN(c2ccccn2)CC1`, the melting point lay in the range of 240 to 242 °C.
For `COCCn1nc(-c2cc(C(C)(C)C)c(O)c(C(C)(C)C)c2)c2cccnc21` the value was 111 to 113 °C; for `Fc1cc(CC2(Cc3ccnc(F)c3)c3ccccc3-c3nc(-c4ccccc4)ncc32)ccn1`, 213 to 215 °C; for `CCS(=O)(=O)N[C@H](C(=O)NCCc1ccc(OC/C=C/c2ccccc2)c(OC)c1)C(C)C`, 128 to 133 °C.
As for `COc1cc(C=O)ccc1OCC(=O)OC(C)(C)C`, the figure is 86.8 to 90 °C.
Turning to `Cc1cc(OCc2coc(C=Cc3ccc(OC(F)F)cc3)n2)ccc1COCCn1ccnn1`, the melting point fell in the range of 119 to 120 °C.
The compound `C=CCNC(=O)C(O)C1OC(n2cnc3c(N)ncnc32)C(O)C1O` (centres undefined) yielded a melting point of 136 to 138 °C.
For `COCn1ccnc1C(O)(c1ccc(F)cc1)c1ccc(F)cc1` the value was 133 °C.
For `CC(C)(C)c1ccccc1N1CCN(C(=O)c2ccc(F)cc2)CC1` the value was 137 to 139 °C; for `CC(C)C[C@H](N)C(=O)N[C@@H](CC1CCCCC1)[C@@H](O)c1ccccn1`, 98 to 100 °C; for `COc1cc(Nc2nccc(-c3ccc(NCCC4CCCN4C)nc3)n2)cc(OC)c1OC` (centres undefined), 176 to 177 °C.
As for `Cc1cc(C2=NN(C(=S)Cl)[C@H](C)Cc3cc4c(cc32)OCO4)ccc1[N+](=O)[O-]`, the figure is 193 to 196 °C; as for `CC(Br)C(Br)C(=O)NC(=O)Nc1ccc(Cl)c(Cl)c1` (centres undefined), 196 to 197 °C; as for `NS(=O)(=O)c1cccc(-c2cccc(-c3nc(-c4ccc(F)cc4)cc(C(F)(F)F)n3)c2)c1`, 208 °C.
In turn, `CCCCc1ncc(C(=O)OCC)c(NCc2ccc(-c3ccccc3-c3nnn[nH]3)cc2)n1` gave a melting point of 153 to 155 °C.
For `CC(=O)NC[C@H]1CN(c2ccc(-n3cnnc3S)c(F)c2)C(=O)O1` the value was 269 to 271 °C.
For `Cn1ccc2c(C(=O)c3ccccc3O)cccc21`, the melting point amounted to 80 °C.
Consider `Cc1nnc2n1-c1sc(CCC(=O)N3CCCCC3)cc1C(c1ccccc1Cl)=NC2C` (centres undefined), for which the melting point was 157 to 160 °C.
For `CCCn1c(=O)c2[nH]c(-c3cc(C)n(CC(=O)Nc4ccc(OC)cc4)n3)nc2n(CCC)c1=O`, the melting point lay within 293 to 296 °C.
As for `CCOC(=O)c1c(C(F)(F)F)nc(C(F)(F)F)c(C)c1OC(C)C`, the melting point was in the range of 53 to 55 °C.
For `C=C1CC2C3CCC4=CC(=O)CCC4(C)C3=CCC2(C)C1(O)C(C)=O` (centres undefined) the value was 147 to 162 °C.
